In patent US7572809B2, “Isoquinoline aminopyrazole derivatives” (Hoffmann-La Roche Inc., priority 2005, dated 2009) one finds IC50 data, which are given here for 16 compounds.

In the assay the test system is HCT 116 cells. As to the kind of experiment: Viability assay in HCT 116 cells (CellTiter-Glo). It counts as cell-based. As to conditions: 120 h; HCT 116 human colon carcinoma cells, 5 days incubation. As to the method: Viability Assay in HCT 116 Cells
A viability assay was performed using the CellTiter-Glo® Luminescent Cell Viability Assay (see Promega Corporation's Technical Bulletin No. 288, pp. 1-11 [revised February, 2004] which is hereby incorporated by reference in its entirety). This assay is a homogeneous method of determining the number of viable cells in culture based on quantitation of the ATP present, an indicator of metabolically active cells. The assay is designed for use with multiwell formats, making it ideal for automated high-throughput screening (HTS), cell proliferation and cytotoxicity assays. The homogeneous assay procedure involves adding a single reagent (containing luciferase, luciferan substrate, and buffer) directly to cells cultured in serum-supplemented medium. Cell washing, removal of medium and multiple pipetting steps are not required. The system detects as few as 15 cells/well in a 384-well format in 10 minutes after adding reagent and mixing.
The homogeneous “add-mix-measure” format results in cell lysis and generation of a luminescent signal proportional to the amount of ATP present. The amount of ATP is directly proportional to the number of cells present in culture. The above-referenced assay generates a “glow-type” luminescent signal, produced by the luciferase reaction, which has a half-life generally greater than five hours, depending on cell type and medium used. The extended half-life eliminates the need to use reagent injectors and provides flexibility for continuous or batch mode processing of multiple plates. The unique homogeneous format avoids errors that may be introduced by other ATP measurement methods that require multiple steps.
HCT 116 cells (human colon carcinoma, ATCC-No. CCl-247) were cultivated in RPMI 1640 medium with GlutaMAX™ I (cell culture media that contains L-Alanyl-L-Glutamine [a stabilized form/source of L-Glutamine] from Invitrogen, Cat-No. 61870-010), 5% Fetal Calf Serum (FCS, Sigma Cat-No. F4135 (FBS)); 100 Units/ml penicillin/100 μg/ml streptomycin (=Pen/Strep from Invitrogen Cat. No. 15140). For the assay the cells were seeded in 384 well plates, 1000 cells per well, in the same medium. The next day the test compounds were added in various concentrations ranging from 30 μM to 0.0015 μM (10 concentrations, 1:3 diluted). After 5 days the viability assay was performed according to the instructions of the manufacturer. In brief: the cell-plate was equilibrated to room temperature for approximately 30 minutes and then the CellTiter-Glo™ reagent (which contains luciferase, luciferan substrate, and buffer) was added. The contents were carefully mixed for 15 minutes to induce cell lysis. After 45 minutes the luminescent signal was measured in Victor 2, (scanning multiwell spectrophotometer, Wallac).
1st. Day: • Medium: RPMI 1640 with GlutaMAX™ I (Invitrogen, Cat-No. 61870), 5% FCS (Sigma Cat.-No. F4135), Pen/Strep (Invitrogen, Cat No. 15140). • HCT116 (ATCC-No. CCl-247): 1000 cells in 60 μl per well of 384 well plate (Greiner 781098, μClear-plate white) • After seeding incubate plates 24 h at 37° C., 5% CO2 2nd. Day: Induction (Treatment with Compounds, 10 Concentrations):
In order to achieve a final concentration of 30 μM as highest concentration 3.5 μl of 10 mM compound stock solution were added directly to 163 μl media. Then step e) of the dilution procedure described below, was followed.
In order to achieve the second highest to the lowest concentrations, a serial dilution with dilution steps of 1:3 was followed according to the procedure (a-e) as described here below: a) for the second highest concentration add 10 μl of 10 mM stock solution of compound to 20 μl dimethylsulfoxide (DMSO) b) dilute 8×1:3 (always 10 μl to 20 μl DMSO) in this DMSO dilution row (results in 9 wells with concentrations from 3333.3 μM to 0.51 μM) c) dilute each concentration 1:47.6 (3.5 μl compound dilution to 163 μl media) […]
`COc1cccc(-c2nc(Nc3cc(C)[nH]n3)cc3cc(OCCN4CCOCC4)ccc23)c1` [Example 300, [1-(3-Methoxy-phenyl)-6-(2-morpholin-4-yl-ethoxy)-isoquinolin-3-yl]-(5-methyl-1H-pyrazol-3-yl)-amine] showed an IC50 of 1.53 µM.
The value for `Cc1cc(Nc2cc3ccccc3c(OC3CCCCC3)n2)n[nH]1` [Example 33, (1-Cyclohexyloxy-isoquinolin-3-yl)-(5-methyl-1H-pyrazol-3-yl)-amine] was 3.24 µM; that for `COc1ccc2c(-c3ccc(C(C)=O)cc3)nc(Nc3cc[nH]n3)cc2c1` [Example 252, 1-{4-[6-Methoxy-3-(1H-pyrazol-3-ylamino)-isoquinolin-1-yl]-phenyl}-ethanone] was 3.87 µM; that for `COc1ccc2c(OCCN3CCOCC3)nc(Nc3cc(C)[nH]n3)cc2c1` [Example 53, (5-Methyl-1H-pyrazol-3-yl)-[1-(2-morpholin-4-yl-ethoxy)-6-methoxy-isoquinolin-3-yl]-amine] was 3.5 µM.
The value for `COc1ccc2cc(Nc3cc(C)[nH]n3)nc(Oc3ccc(Cl)cc3)c2c1` [Example 77, [1-(4-Chloro-phenoxy)-7-methoxy-isoquinolin-3-yl]-(5-methyl-1H-pyrazol-3-yl)-amine] was 1.94 µM; that for `COc1ccc2c(-c3ccc(C)cc3)nc(Nc3cc[nH]n3)cc2c1` [Example 263, (6-Methoxy-1-p-tolyl-isoquinolin-3-yl)-(1H-pyrazol-3-yl)-amine] was 1.54 µM; that for `COc1cccc(Sc2nc(Nc3cc(C)[nH]n3)cc3ccccc23)c1` [Example 306, [1-(3-Methoxy-phenylsulfanyl)-isoquinolin-3-yl]-(5-methyl-1H-pyrazol-3-yl)-amine] was 1.57 µM.
The figure for `COc1ccc2c(C(=O)NCC3CC3)nc(Nc3cc(C)[nH]n3)cc2c1` [Example 318, 6-Methoxy-3-(5-methyl-1H-pyrazol-3-ylamino)-isoquinoline-1-carboxylic acid cyclopropylmethyl-amide] is 3.11 µM; for `COc1cccc2c(Oc3ccc(C)cc3)nc(Nc3cc(C)[nH]n3)cc12` [Example 67, (5-Methyl-1H-pyrazol-3-yl)-(1-p-tolyloxy-5-methoxy-isoquinolin-3-yl)-amine] it is 1.37 µM; for `COc1ccc2c(Oc3ccc(C#N)cc3)nc(Nc3cc(C)[nH]n3)cc2c1` [Example 39, 4-[3-(5-Methyl-1H-pyrazol-3-ylamino)-6-methoxy-isoquinolin-1-yloxy]-benzonitrile] it is 1.38 µM.
On to `COc1ccc2c(OC(C)C)nc(Nc3cc(C)[nH]n3)cc2c1` [Example 56, (1-Isopropoxy-6-methoxy-isoquinolin-3-yl)-(5-methyl-1H-pyrazol-3-yl)-amine], for which the IC50 was 0.636 µM.
The value for `Cc1cc(Nc2cc3ccccc3c(-c3cnn(C)c3)n2)n[nH]1` [Example 164, (5-Methyl-1H-pyrazol-3-yl)-[1-(1-methyl-1H-pyrazol-4-yl)-isoquinolin-3-yl]-amine] was 5.31 µM.
The figure for `COc1ccc2c(-c3cn[nH]c3)nc(Nc3cc(C)[nH]n3)cc2c1` [Example 194, (5-Methyl-1H-pyrazol-3-yl)-[1-(1H-pyrazol-4-yl)-6-methoxy-isoquinolin-3-yl]-amine] is 3.44 µM; for `Cc1cc(Nc2cc3ccccc3c(Oc3ccccc3C)n2)n[nH]1` [Example 21, (5-Methyl-1H-pyrazol-3-yl)-(1-o-tolyloxy-isoquinolin-3-yl)-amine] it is 5.67 µM.
The value for `COc1ccc2c(Oc3ccc(F)cc3)nc(Nc3cc(C)[nH]n3)cc2c1OC` [Example 94, [1-(4-Fluoro-phenoxy)-5,6-dimethoxy-isoquinolin-3-yl]-(5-methyl-1H-pyrazol-3-yl)-amine] was 2.54 µM; that for `Cc1cc(Nc2cc3ccccc3c(Oc3ccc(Cl)cc3)n2)n[nH]1` [Example 16, [1-(4-Chloro-phenoxy)-isoquinolin-3-yl]-(5-methyl-1H-pyrazol-3-yl)-amine] was 1.93 µM.
